Entries after “also recorded” stand apart in the source; their conditions may differ.
Legend:
[1] = test system: L6 myotubes; experiment: Cytotoxic effects in L6 myotube cultures; type: cell-based; details: above 100 μM
[2] = test system: AMPK; experiment: Thr172 phosphorylation of AMPK in L6 myotubes, Western blot of whole cell lysates; type: cell-based
Experimental: The effect of the various derivatives on the rate of glucose uptake in L6 myotubes was investigated. […] The abundance of GLUT1 and GLUT4 in the plasma membranes of L6 myotubes was determined in cells expressing GLUT-1myc or GLUT-4myc, as described before. […] In addition, the effect of compounds on the glucose—stimulated insulin secretion (GSIS) was investigated. Whole cell lysates were prepared as previously described with some minor modifications: the lysis buffer contained 50 mM Tris-HCl, pH 7.5, 1 mM EDTA, 1 mM EGTA, 1 mM Na3VO4, 150 mM NaCl, 50 mM NaF, 10 mM sodium-glycerophosphate, 5 mM sodium pyrophosphate, and 1 mM PMSF, supplemented with 0.1% (v/v) NP-40, 0.1% (v/v) 2-β-mercaptoethanol, and protease inhibitor cocktail (1:100 dilution). The cells were washed by ice-cold PBS, and 1 ml of lysis buffer was then added and incubated at 4° C. for 40 minutes. The resulting cell lysates were centrifuged at 8,700 g×30 minutes at 4° C. and the resulting supernatant fractions were separated and kept at −20° C. until used. Protein content in the supernatant was determined according to Bradford, using a BSA standard dissolved in the same buffer. […] Samples for Western blot analyses of GLUT1 and GLUT4 were prepared as described in [22]. The proteins were separated on 10% SDS-PAGE and Western blot analyses performed using antibodies according to our previously established protocols.

[3] = test system: L6 myotubes; experiment: [3H]-2-deoxy-D-glucose (dGlc) uptake assay in L6 myotubes; type: cell-based
Experimental: The effect of the various derivatives on the rate of glucose uptake in L6 myotubes was investigated. […] The abundance of GLUT1 and GLUT4 in the plasma membranes of L6 myotubes was determined in cells expressing GLUT-1myc or GLUT-4myc, as described before. […] In addition, the effect of compounds on the glucose—stimulated insulin secretion (GSIS) was investigated.
L6 myotubes were maintained as described in [21]. All experiments were conducted on fully differentiated myotubes.
The rate of [^3H]dGlc uptake in myotubes, in the absence or presence of insulin, was determined as described in [21]. […] […] The cultures were then rinsed 3 times with PBS at room temperature and incubated with PBS, pH 7.4, containing 0.1 mM dGlc and 1.0 μCi/ml [^3H]dGlc for 5 minutes at room temperature. At the end of the assay, the myotubes were lysed in 0.1% (w/v) SDS in water and taken for liquid scintillation.

[4] = test system: diabetic KKAy mice; experiment: Blood glucose level in diabetic KKAy mice after subcutaneous injection; type: in vivo; details: for reduction of blood glucose: 75 mg/kg s.c. twice daily in sesame oil
From the text: (§1) The effect of the various ethoxybenzo-thiazol derivatives on the blood glucose level in diabetic KKAy mice was investigated. The in vivo antihyperglycemic effect of the lead compound was investigated in hyperglycemic and hyperinsulinemic KKAy mice, an established animal model for T2DM, after subcutaneous injections. Venous blood samples from small tail clips were taken for glucose determination. Finally, to investigate the effect of the lead compound on whole body glucose disposal in the mice we performed standard IP-GTT tests following an overnight fast.
Diabetic male KKAy mice (8 to 12-week old, 20-25 g) were purchased from The Jackson Laboratory (Bar Harbor, Me.). The animals were routinely kept in 12-h light/dark cycles and provided with food and water ad libitum. Blood glucose levels at sacrifice ranged between 17-25 mmol/l. The ethics committee (IACUC) of the Hebrew University of Jerusalem approved the study protocol for animal welfare. The Hebrew University of Jerusalem is an AAALAC international accredited institution.
(§2) The antihyperglycemic potential of 34 was investigated in an animal model of diabetes. Test compound was injected subcutaneously (75 mg per kg body weight, suspension in sesame oil, twice daily) to diabetic KKAy mice; control mice received the vehicle only. The blood glucose levels at day zero, 20.8±0.9 and 22.3±1.3 mM for the control and 34-treated groups, respectively, were taken as the reference 100% values in FIG. 4A. […] It should be noted, however, that despite the marked antihyperglycemic effects of 34, normoglycemia was not reached. To better evaluate the potential of 34, the glucose tolerance of treated KKAy mice was evaluated using a standard IP-GTT. The mice were treated with 34 as described above for two days, after which IP-GTT was performed after an overnight fast, as described. […] IP-GTT was performed following an overnight fast in mice treated with 34 or oil, as described herein above. […] The cells were grown in standard RPMI1640 complete culture medium, treated with 10 μM compound 20 and incubated for the indicate time periods. At the end of incubations the cells were taken for a standard GSIS assay described herein.

[5] = test system: GLUT4myc; experiment: Colorimetric determination of surface GLUT4myc in L6 myotubes; type: cell-based
Experimental: The colorimetric detection of surface GLUT4myc or GLUT1myc in L6 myotubes was performed as described in [7]. Briefly, cultured myotubes were incubated with rabbit anti-C-Myc antibody (1:200 dilution), washed and fixed with 3% formaldehyde, and further interacted with goat HRP-conjugated anti-rabbit IgG (1:2000 dilution). Following the washes, a solution of OPD was added, and the culture plates were taken for absorbance measurement at 492 nM to estimate the relative abundance of GLUT1myc or GLUT4myc on the plasma membrane of the myotubes. The GLUT1myc and GLUT4myc L6 cell cultures were the courtesy of Dr. A. Klip, Hospital for Sick Children (Toronto, ON, Canada).
The capacity of compound 34 to increase the rate of glucose uptake by increasing GLUT4 content in the plasma membrane of myotubes was tested. […] The cells expressing GLUT1myc or GLUT4myc were treated with 25 μM of 34 or DMSO as described above. At the end of the incubation, the cultures were taken for immunodetection of surface GLUT1myc (open bars) or GLUT4myc (black bars), as described herein above.

[6] = test system: GLUT4; experiment: Total GLUT4 content in whole cell lysates of L6 myotubes, Western blot; type: cell-based
Experimental: (§3) Whole cell lysates were prepared as previously described with some minor modifications: the lysis buffer contained 50 mM Tris-HCl, pH 7.5, 1 mM EDTA, 1 mM EGTA, 1 mM Na3VO4, 150 mM NaCl, 50 mM NaF, 10 mM sodium-glycerophosphate, 5 mM sodium pyrophosphate, and 1 mM PMSF, supplemented with 0.1% (v/v) NP-40, 0.1% (v/v) 2-β-mercaptoethanol, and protease inhibitor cocktail (1:100 dilution). The cells were washed by ice-cold PBS, and 1 ml of lysis buffer was then added and incubated at 4° C. for 40 minutes. The resulting cell lysates were centrifuged at 8,700 g×30 minutes at 4° C. and the resulting supernatant fractions were separated and kept at −20° C. until used. Protein content in the supernatant was determined according to Bradford, using a BSA standard dissolved in the same buffer. Aliquots (5-60 μg of protein) were mixed with the sample buffer [62.5 mM Tris-HCl, pH 6.8, 2% (w/v) SDS, 10% (v/v) glycerol, 50 mM DTT, and 0.01% (w/v) bromophenol blue], heated at 95° C. for 5 minutes. Samples for Western blot analyses of GLUT1 and GLUT4 were prepared as described in [22]. The proteins were separated on 10% SDS-PAGE and Western blot analyses performed using antibodies according to our previously established protocols.

[7] = test system: GLUT1; experiment: Total GLUT1 content in whole cell lysates of L6 myotubes, Western blot; type: cell-based
Experimental: as §3

[8] = test system: diabetic KKAy mice; experiment: Intraperitoneal glucose tolerance test (IP-GTT) in KKAy mice; type: in vivo
From the text: as §1
A standard IP-GTT test was performed on mice after an overnight fast. Glucose in saline was injected intraperitoneally (1.5 g/kg body weight). Venous blood samples from small tail clips were taken for glucose determination using a glucometer (FreeStyle Freedom, Abbott Diabetes Care, Alamada, Calif.).
as §2

Q: Which results are given for `CCC1SC(N)=NC1=O` (stereo not shown) [Compound 3, 2-amino-5-ethylthiazol-4(5H)-one]?
A: cytotoxic effects [1]: cytotoxic effects; time of return of Thr172 phosphorylation to the basal hypo-phosphorylated level ([2]; 100 μM): 3 h; Thr172 phosphorylation in AMPK / AMPK activation (result in words) ([2]; L6 myotubes): increased; time of maximal (peak) Thr172 phosphorylation in AMPK ([2]; incubation time): 40 min; rate of glucose uptake in L6 myotubes (result in words) [3]: increase; also recorded: augmented; time of maximal glucose uptake stimulatory effect ([3]; 100 μM): ≤ 5 h; rate of glucose uptake compared to vehicle (DMSO) treated control ([3]; 100 μM, basal rate = 100%): 131.4%±6.8%; activity at 100 µM ([3]; Rattus norvegicus, L6, 100 μM, Mean ± SD (n = 3), Table 1, read-out: Effect on glucose uptake [100 μM] in L6 myotubes (%)): 131 ± 6.8%; maximal effective concentration, glucose uptake ([3]; dose response, 5 h (3) or 12 h (4, 15)): 100 µM

Q: What does the source list for `CCOc1ccc2nc(SCc3nc4ccccc4s3)sc2c1` [Compound 34, 2-((benzothiazol-2-ylmethyl)thio)-6-ethoxybenzothiazole]?
A: normoglycemia ([4]; 75 mg/kg s.c. twice daily): not reached; reduction of blood glucose ([4]; day 1): ~30%; reduction of blood glucose ([4]; day 2): ~45%; reduction of blood glucose ([4]; day 3): ~50%; period required to exert action on GLUT4myc translocation [5]: 5 h; abundance of GLUT4myc in the plasma membrane ([5]; 25 μM of 34, insulin): induces GLUT-4; also recorded: increased; total content of GLUT4 in myotubes [6]: Neither compound altered; time to significant Thr172 phosphorylation of AMPK ([2]; incubation time): ≤ 1 h; total content of GLUT1 in myotubes [7]: Neither compound altered; minimal effective concentration, glucose uptake [3]: 25 µM; persistence of stimulatory effect on glucose uptake [3]: up to 24 hours; rate of glucose uptake in L6 myotubes (result in words) [3]: increase; also recorded: markedly augmented; stimulatory effect on glucose uptake in the presence of wortmannin or Akt/PKB inhibitor ([3]; 100 nM wortmannin or 100 nM Akt/PKB inhibitor added 30 min before): PI3K- and Akt/PKB-independent manner; also recorded: remained unaltered; increase of rate of glucose uptake, combined effect with insulin ([3]; 25 μM of 34 (5 hours) plus insulin 100 nM (last 20 minutes)): 148%±29%; increase of rate of glucose uptake ([3]; 25 μM of 34, last 5 hours, serum free, 23.0 mM D-glucose, without insulin): 75%±17%; increase of rate of glucose uptake ([3]; under similar experimental conditions (5 hours)): 2.5 fold; glucose tolerance (result in words) ([8]; 75 mg/kg s.c. twice daily, two days): improved glucose tolerance; also recorded: significantly improved; IP-GTT area under the curve (AUC) ([8]; two days of treatment, overnight fast, glucose 1.5 g/kg i.p.): 753.6±142.2 mmol glucose/l/min; improvement of total body glucose clearance ([8]; two-day treatment): 40%-50%
